The assay deals with T1, human FOXO1 (constitutively active form Thr24Ala, Ser256Ala, Ser319Ala) (Homo sapiens, UniProt Q12778, S256A/S319A/T24A).
T1 construct: expressed in transfected cells; host or cells: HEK293 cells transfected with pcDNA3.1 plasmid
Briefly: FOXO1 inhibitor activity assay: cell-based transcriptional (luciferase) reporter assay in HEK293 cells. The settings on record: HEK293 cells transfected with insulin response element firefly luciferase reporter, FOXO1 and Renilla luciferase; 10-point dose response 50 μM to 2.5 nM; 24 hours. The essentials: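 IC50 and maximal inhibition were fitted by 4-parameter logistic regression on normalized firefly/Renilla luciferase ratios. The 0% reference used RFP in place of FOXO1, and the 100% reference was DMSO-only with all plasmids.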
On the technique in general: In a reporter assay the amount or activity of a reporter protein is the signal.

Structures are written as SMILES. Where a name gives a salt, the structure may show the parent alone.

T1 sequence (Q12778 whole entry T24A/S256A/S319A): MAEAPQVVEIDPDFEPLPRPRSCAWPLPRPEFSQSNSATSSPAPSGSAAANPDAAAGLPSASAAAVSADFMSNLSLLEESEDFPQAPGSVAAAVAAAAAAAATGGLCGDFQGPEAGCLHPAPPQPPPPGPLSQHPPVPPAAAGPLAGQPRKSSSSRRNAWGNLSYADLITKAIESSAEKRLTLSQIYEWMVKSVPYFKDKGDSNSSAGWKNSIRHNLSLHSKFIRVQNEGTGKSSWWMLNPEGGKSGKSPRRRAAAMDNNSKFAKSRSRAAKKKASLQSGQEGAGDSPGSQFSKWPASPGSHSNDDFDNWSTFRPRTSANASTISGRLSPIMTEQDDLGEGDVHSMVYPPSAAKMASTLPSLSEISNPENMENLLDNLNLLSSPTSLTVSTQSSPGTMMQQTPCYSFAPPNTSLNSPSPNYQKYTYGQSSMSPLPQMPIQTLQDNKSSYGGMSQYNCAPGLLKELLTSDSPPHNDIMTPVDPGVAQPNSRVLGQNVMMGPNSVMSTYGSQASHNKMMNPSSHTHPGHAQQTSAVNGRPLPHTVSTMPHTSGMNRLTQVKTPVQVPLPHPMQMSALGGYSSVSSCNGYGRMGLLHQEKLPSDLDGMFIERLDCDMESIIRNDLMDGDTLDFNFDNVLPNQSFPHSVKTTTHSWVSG

One may read the IC50 as the concentration that inhibits the measured activity by half. Low values mean inhibition by little substance, high ones a need for much substance. The compound `O=C(Nc1cc(-c2nc3ccccc3[nH]2)[nH]n1)c1ccc(N2CCC(O)CC2)nc1` [Compound A-42, N-[5-(1H-benzimidazol-2-yl)-1H-pyrazol-3-yl]-6-(4-hydroxy-1-piperidyl)pyridine-3-carboxamide] returned an IC50 of 100 to 300 nM.

The compound `COc1ccc(C(=O)Nc2cc(-c3nc4ccc(OC)c(F)c4[nH]3)[nH]n2)cc1Cl` [Compound A-106, 3-chloro-N-[5-(7-fluoro-6-methoxy-1H-benzimidazol-2-yl)-1H-pyrazol-3-yl]-4-methoxy-benzamide] came in with an IC50 of 100 to 300 nM.

Turning to `Cn1nc(NC(=O)c2ccc(OCCO)c(Cl)c2)cc1-c1nc2cc(F)ccc2[nH]1` [Compound A-167, 3-chloro-N-[5-(5-fluoro-1H-benzimidazol-2-yl)-1-methyl-pyrazol-3-yl]-4-(2-hydroxyethoxy)benzamide], the half-inhibitory concentration (IC50) is < 100 nM.

On to `COCCSc1ccc(C(=O)Nc2cc(-c3nc4ccccc4[nH]3)[nH]n2)cc1Cl` [Compound A-93, N-[5-(1H-benzimidazol-2-yl)-1H-pyrazol-3-yl]-3-chloro-4-(2-methoxyethylsulfanyl)benzamide], for which the concentration for half-maximal inhibition (IC50) is < 100 nM.

Consider `Cn1nc(NC(=O)c2ccc(N3CCC(N4CCOCC4)CC3)nn2)cc1-c1nc2ccccc2[nH]1` [Compound A-207, N-[5-(1H-benzimidazol-2-yl)-1-methyl-pyrazol-3-yl]-6-(4-morpholino-1-piperidyl)pyridazine-3-carboxamide], for which the IC50 was 300 to 1000 nM.

Consider `COCCOc1ccc(C(=O)Nc2cc(-c3nc4ccccc4[nH]3)[nH]n2)cc1F` [Compound A-103, N-[5-(1H-benzimidazol-2-yl)-1H-pyrazol-3-yl]-3-fluoro-4-(2-methoxy-ethoxy)benzamide], for which the IC50 is < 100 nM.

On to `COC1CN(c2ccc(C(=O)Nc3cc(-c4nc5cccc(F)c5[nH]4)n(C)n3)cn2)C1` [Compound A-137, N-[5-(4-fluoro-1H-benzimidazol-2-yl)-1-methyl-pyrazol-3-yl]-6-(3-methoxyazetidin-1-yl)pyridine-3-carboxamide], for which the IC50 fell in the range of 300 to 1000 nM.

With `COc1ccc(C(=O)Nc2n[nH]c(-c3nc4ccccc4[nH]3)c2F)cc1Cl` [Compound A-76, N-[5-(1H-benzimidazol-2-yl)-4-fluoro-1H-pyrazol-3-yl]-3-chloro-4-methoxy-benzamide], the half-maximal inhibitory concentration (IC50) is > 1000 nM.

Take `Cn1nc(NC(=O)c2ccc(N3CCN(CC(C)(C)O)CC3)cc2)cc1-c1nc2ccccc2[nH]1` [Compound A-259, N-[5-(1H-benzimidazol-2-yl)-1-methyl-pyrazol-3-yl]-4-[4-(2-hydroxy-2-methyl-propyl)piperazin-1-yl]benzamide]: the IC50 was < 100 nM.

Consider `O=C(Nc1cc(-c2nc3ccccc3[nH]2)[nH]n1)c1ccc(N2CCN(CCO)CC2)nc1` [Compound A-143, N-[5-(1H-benzimidazol-2-yl)-1H-pyrazol-3-yl]-6-[4-(2-hydroxyethyl)-piperazin-1-yl]pyridine-3-carboxamide], for which the half-inhibitory concentration (IC50) lay within 100 to 300 nM.

`CN(C)C1CCN(c2ccc(C(=O)Nc3cc(-c4nc5cccc(F)c5[nH]4)n(C)n3)cn2)CC1` [Compound A-139, 6-[4-(dimethylamino)-1-piperidyl]-N-[5-(4-fluoro-1H-benzimidazol-2-yl)-1-methyl-pyrazol-3-yl]pyridine-3-carboxamide]: the IC50 is 100 to 300 nM.

In the case of `CC1(O)CCCN(c2ccc(C(=O)Nc3cc(-c4nc5ccccc5[nH]4)[nH]n3)cn2)C1` (stereo not drawn) [Compound A-59, N-[5-(1H-benzimidazol-2-yl)-1H-pyrazol-3-yl]-6-(3-hydroxy-3-methyl-1-piperidyl)pyridine-3-carboxamide], the 50% inhibitory concentration (IC50) fell in the range of 300 to 1000 nM.

Regarding `COc1ccc(C(=O)Nc2cc(-c3nc4cc(N5CCN(C)CC5)ccc4[nH]3)[nH]n2)cc1Cl` [Compound A-261, 3-chloro-4-methoxy-N-[5-[5-(4-methylpiperazin-1-yl)-1H-benzimidazol-2-yl]-1H-pyrazol-3-yl]benzamide], the IC50 is < 100 nM.

Consider `Cn1nc(NC(=O)c2ccc(N3CCOCC3)nc2)cc1-c1nc2cccc(F)c2[nH]1` [Compound A-135, N-[5-(4-fluoro-1H-benzimidazol-2-yl)-1-methyl-pyrazol-3-yl]-6-morpholino-pyridine-3-carboxamide], for which the IC50 lay within 100 to 300 nM.

With `Cn1nc(NC(=O)c2ccc(N3CC4(COC4)C3)nc2)cc1-c1nc2ccccc2[nH]1` [Compound A-275, N-[5-(1H-benzimidazol-2-yl)-1-methyl-pyrazol-3-yl]-6-(2-oxa-6-azaspiro[3.3]heptan-6-yl)pyridine-3-carboxamide], the IC50 was 100 to 300 nM.

For the compound `CN1CCN(c2ccc(C(=O)Nc3cc(-c4nc5ccccc5[nH]4)[nH]n3)nc2)CC1` [Compound A-184, N-[5-(1H-benzimidazol-2-yl)-1H-pyrazol-3-yl]-5-(4-methylpiperazin-1-yl)pyridine-2-carboxamide], the IC50 was > 1000 nM.

For `O=C(Nc1cc(-c2nc3cc(F)ccc3[nH]2)[nH]n1)c1ccc(N2CCC(CO)CC2)nc1` [Compound A-80, N-[5-(5-fluoro-1H-benzimidazol-2-yl)-1H-pyrazol-3-yl]-6-[4-(hydroxymethyl)-1-piperidyl]pyridine-3-carboxamide], the concentration for half-maximal inhibition (IC50) is < 100 nM.

The compound `C[C@H]1CN(c2ccc(C(=O)Nc3cc(-c4nc5ccccc5[nH]4)n(C)n3)cn2)C[C@H](C)N1` [Compound A-288, N-[5-(1H-benzimidazol-2-yl)-1-methyl-pyrazol-3-yl]-6-[(3S,5S)-3,5-dimethylpiperazin-1-yl]pyridine-3-carboxamide] gave a concentration for half-maximal inhibition (IC50) of 100 to 300 nM.

`COCCOc1ccc2[nH]c(-c3cc(NC(=O)c4ccc(OC)c(Cl)c4)n[nH]3)nc2c1` [Compound A-256, 3-chloro-4-methoxy-N-[5-[5-(2-methoxyethoxy)-1H-benzimidazol-2-yl]-1H-pyrazol-3-yl]benzamide]: the IC50 is < 100 nM.

For `CC(=O)N1CCN(c2ccc(C(=O)Nc3cc(-c4nc5ccccc5[nH]4)n(C)n3)cn2)CC1` [A-231, 6-(4-acetylpiperazin-1-yl)-N-[5-(1H-benzimidazol-2-yl)-1-methyl-pyrazol-3-yl]pyridine-3-carboxamide], the IC50 was < 100 nM.

For `O=C(O)CN1CCN(c2ccc(C(=O)Nc3cc(-c4nc5ccccc5[nH]4)[nH]n3)cc2)CC1` [Compound A-199, 2-[4-[4-[[5-(1H-benzimidazol-2-yl)-1H-pyrazol-3-yl]carbamoyl]phenyl]-piperazin-1-yl]acetic acid hydrochloride], the IC50 fell in the range of 100 to 300 nM.

As to `Cn1nc(NC(=O)c2ccc(N3CCN(CCO)CC3)cc2)cc1-c1nc2ccccc2[nH]1` [Compound A-213, N-[5-(1H-benzimidazol-2-yl)-1-methyl-pyrazol-3-yl]-4-[4-(2-hydroxy-ethyl)piperazin-1-yl]benzamide], the IC50 is 100 to 300 nM.

Turning to `O=C(Nc1cc(-c2nc3ccccc3[nH]2)[nH]n1)c1ccc(N2CCN(C3COC3)CC2)cc1` [Compound A-220, N-[5-(1H-benzimidazol-2-yl)-1H-pyrazol-3-yl]-4-[4-(oxetan-3-yl)piperazin-1-yl]benzamide], the concentration for half-maximal inhibition (IC50) was < 100 nM.

Consider `COCCCOc1ccc(C(=O)Nc2cc(-c3nc4ccccc4[nH]3)[nH]n2)cc1Cl` [Compound A-53, N-[5-(1H-benzimidazol-2-yl)-1H-pyrazol-3-yl]-3-chloro-4-(3-methoxy-propoxy)benzamide], for which the 50% inhibitory concentration (IC50) was < 100 nM.

In turn, `CN1CCN(c2ccc(C(=O)Nc3cc(-c4nc5ccccc5[nH]4)n(C)n3)cn2)CC1=O` [Compound A-246, N-[5-(1H-benzimidazol-2-yl)-1-methyl-pyrazol-3-yl]-6-(4-methyl-3-oxo-piperazin-1-yl)pyridine-3-carboxamide] yielded an IC50 of 100 to 300 nM.

Turning to `COc1cc(F)c2[nH]c(-c3cc(NC(=O)c4ccc(N5CCN(C(C)=O)CC5)nc4)nn3C)nc2c1` [Compound A-240, 6-(4-acetylpiperazin-1-yl)-N-[5-(7-fluoro-5-methoxy-1H-benzimidazol-2-yl)-1-methyl-pyrazol-3-yl]pyridine-3-carboxamide], the IC50 was < 100 nM.

Take `Cn1nc(NC(=O)c2ccc(OC3COC3)c(Cl)c2)cc1-c1nc2ccccc2[nH]1` [Compound A-252, N-[5-(1H-benzimidazol-2-yl)-1-methyl-pyrazol-3-yl]-3-chloro-4-(oxetan-3-yloxy)benzamide]: the IC50 was < 100 nM.

For the compound `O=C(Nc1cc(-c2nc3ccccc3[nH]2)[nH]n1)c1ccc(N2CCN(CCO)CC2)cc1` [Compound A-181], the concentration for half-maximal inhibition (IC50) is < 100 nM.

As to `O=C(Nc1cc(-c2nc3ccccc3[nH]2)[nH]n1)c1ccc(OCCO)c(Cl)c1` [Compound A-50, N-[5-(1H-benzimidazol-2-yl)-1H-pyrazol-3-yl]-3-chloro-4-(2-hydroxy-ethoxy)benzamide], the IC50 is < 100 nM.

Turning to `COCCOc1ccc(C(=O)Nc2cc(-c3nc4cc(F)ccc4[nH]3)n(C)n2)cc1Cl` [Compound A-166, 3-chloro-N-[5-(5-fluoro-1H-benzimidazol-2-yl)-1-methyl-pyrazol-3-yl]-4-(2-methoxyethoxy)benzamide], the IC50 was < 100 nM.

For `COc1ccn2cc(-c3cc(NC(=O)c4ccc(OC)c(Cl)c4)n[nH]3)nc2c1` [Compound A-162, 3-chloro-4-methoxy-N-[5-(7-methoxyimidazo[1,2-a]pyridin-2-yl)-1H-pyrazol-3-yl]benzamide], the IC50 is > 1000 nM.

For `Cn1nc(NC(=O)c2ccc(N3CCOCC3)nc2)cc1-c1nc2ccccc2[nH]1` [Compound A-210, N-[5-(1H-benzimidazol-2-yl)-1-methyl-pyrazol-3-yl]-6-morpholino-pyridine-3-carboxamide], the IC50 is < 100 nM.

With `COCCn1nc(NC(=O)c2ccc(N3CCN(C)CC3)cc2)cc1-c1nc2ccccc2[nH]1` [Compound A-185, N-[5-(1H-benzimidazol-2-yl)-1-(2-methoxyethyl)pyrazol-3-yl]-4-(4-methylpiperazin-1-yl)benzamide], the IC50 is > 1000 nM.

The values are drawn from US20230416228A1 (Forkhead Biotherapeutics, Inc., priority 2020, published 2023).
